Values quoted from earlier work as cited in patent US10927398B2, “Compositions for CYP450 phenotyping using saliva samples” (Concordia University, Inc., priority 2015, dated 2021).
Like-named read-outs stand apart in the source and are kept apart here.

Experiments:
[1] = cited from earlier work
[2] = cited from earlier work; remark: listed apart in the source
plasma protein = details: cited from earlier work
[3] = Table of Exemplary Drugs, CYP2D6
[4] = Table of Exemplary Drugs, CYP1A2
[5] = Table of Exemplary Drugs, CYP3A4
[6] = Table of Exemplary Drugs, CYP2C19
[7] = Table of Exemplary Drugs, CYP2C9

Row | SMILES | ORAL BIOAVAILABILITY [1, 3] | HALF-LIFE [2, 3] [h] | PLASMA PROTEIN BINDING (plasma protein; [3]) | PLASMA PROTEIN BINDING (plasma protein; [5]) | ORAL BIOAVAILABILITY [1, 5] | HALF-LIFE [2, 5] [h] | other results
1 | CCC1(c2ccccc2)C(=O)NC(=O)N(C)C1=O (stereo not drawn) [Methylphenobarbital] |  |  |  |  |  |  | ORAL BIOAVAILABILITY ([1]; in vivo, po): 50%; HALF-LIFE ([2]; in vivo): 31 to 67 h; PLASMA PROTEIN BINDING (plasma protein; plasma): 70-76% ^
2 | COCCc1ccc(OCC(O)CNC(C)C)cc1 (stereo not drawn) [Metoprolol] | 77% | 3 to 7 | 12% |  |  |  | 
3 | Cc1cccc(C)c1OCC(C)N (stereo not drawn) [Mexiletine] | 80-90% | 6 to 17 | 50-70% ^ |  |  |  | ORAL BIOAVAILABILITY [1, 4]: 90%; HALF-LIFE [2, 4]: 10 to 12 h; PLASMA PROTEIN BINDING (plasma protein; [4]): 50-60% ^
4 | CN1CCN2c3ccccc3Cc3ccccc3C2C1 (stereo not drawn) [Mianserin] | 20-30% | 1.4 | 90% |  |  |  | 
5 | Cc1ncc2n1-c1ccc(Cl)cc1C(c1ccccc1F)=NC2 [Midazolam (Versed), Midazolam] |  |  |  | 97% |  |  | ORAL BIOAVAILABILITY ([1]; in vivo, po): PO: 36%; HALF-LIFE ([2]; in vivo): 3 to 6 h
6 | CC#C[C@]1(O)CC[C@H]2[C@@H]3CCC4=CC(=O)CCC4=C3[C@@H](c3ccc(N(C)C)cc3)C[C@@]21C [Mifepristone (Mifeprex), Mifepristone] |  |  |  | 99.2%^ | 69% | 20 to 85 | 
7 | O=C(NCCN1CCOCC1)c1ccc(Cl)cc1 [Moclobemide] |  |  |  |  |  |  | ORAL BIOAVAILABILITY [1, 6]: 55-95%; HALF-LIFE [2, 6]: 2 h; PLASMA PROTEIN BINDING (plasma protein; [6]): 50%
8 | CC(C)[C@H]1CC[C@H](C(=O)N[C@H](Cc2ccccc2)C(=O)O)CC1 [Nateglinide] |  |  |  |  |  |  | ORAL BIOAVAILABILITY [1, 7]: 73%; HALF-LIFE [2, 7]: 1.5 h; PLASMA PROTEIN BINDING (plasma protein; [7]): 98%
9 | OC(CNCC(O)C1CCc2cc(F)ccc2O1)C1CCc2cc(F)ccc2O1 (stereo not drawn) [Nebivolol] | 12-96% | 12 to 19 | 98% |  |  |  | 
10 | CCc1nn(CCCN2CCN(c3cccc(Cl)c3)CC2)c(=O)n1CCOc1ccccc1 [Nefazodone] |  |  |  | >99% | 20% | 2 to 4 | 
11 | Cc1ccnc2c1NC(=O)c1cccnc1N2C1CC1 [Nevirapine (Viramune), Nevirapine] |  |  |  | 60% | 80-94% | 25 to 45 | 
12 | COC(=O)C1=C(C)NC(C)=C(C(=O)OCC(C)C)C1c1ccccc1[N+](=O)[O-] (stereo not drawn) [Nisoldipine (Sular), Nisoldipine] |  |  |  | 99% | 5% | 13.7 | 
13 | CCOC(=O)C1=C(C)NC(C)=C(C(=O)OC)C1c1cccc([N+](=O)[O-])c1 (stereo not drawn) [Nitrendipine (Baypress), Nitrendipine] |  |  |  | 97-99% ^ | 23% | 2 to 24 | 
14 | Cc1nccn1CC1CCc2c(c3ccccc3n2C)C1=O (stereo not drawn) [Ondansetron] | 56% | 3 to 6.2 | 70-76% ^ |  |  |  | ORAL BIOAVAILABILITY [1, 4]: 100%; HALF-LIFE [2, 4]: 3 to 6 h; PLASMA PROTEIN BINDING (plasma protein; [4]): 70-76% ^
15 | COc1ccc2c3c1O[C@H]1C(=O)CC[C@@]4(O)[C@@H](C2)N(C)CC[C@]314 [Oxycodone] | 60-87% | 5.6 | 45% | 45% | 60-87% | 5.6 | 
16 | CC(=O)O[C@H]1C(=O)[C@@]2(C)[C@H]([C@H](OC(=O)c3ccccc3)[C@]3(O)C[C@H](OC(=O)[C@H](O)[C@@H](NC(=O)c4ccccc4)c4ccccc4)C(C)=C1C3(C)C)[C@]1(OC(C)=O)CO[C@@H]1C[C@@H]2O [Paclitaxel (Taxol), Paclitaxel] |  |  |  | 89-98% ^ | 6.50% | 13.1 to 52.7 | 
17 | COc1ccnc(C[S+]([O-])c2nc3ccc(OC(F)F)cc3[nH]2)c1OC (stereo not drawn) [Pantoprazole] |  |  |  |  |  |  | ORAL BIOAVAILABILITY [1, 6]: 77%; HALF-LIFE [2, 6]: 1 h; PLASMA PROTEIN BINDING (plasma protein; [6]): 98%
18 | CC(=O)Nc1ccc(O)cc1 [Paracetamol] |  |  |  |  |  |  | ORAL BIOAVAILABILITY [1, 4]: 85-98%; HALF-LIFE [2, 4]: 1 to 4 h; PLASMA PROTEIN BINDING (plasma protein; [4]): 10-25% ^
19 | [H]/N=C(/N)N/C(=N/[H])NCCc1ccccc1 [Phenformin] | 40-60% | 4 to 13 | 12-20% ^ |  |  |  | 
20 | CCC1(c2ccccc2)C(=O)NC(=O)NC1=O [Phenobarbital] |  |  |  |  |  |  | ORAL BIOAVAILABILITY ([1]; in vivo, po): 80-100%; HALF-LIFE ([2]; in vivo): 36 to 120 h; PLASMA PROTEIN BINDING (plasma protein; plasma): 20-60% ^
21 | O=C1NC(=O)C(c2ccccc2)(c2ccccc2)N1 [Phenytoin] |  |  |  |  |  |  | ORAL BIOAVAILABILITY [1, 7]: 20-90%; ORAL BIOAVAILABILITY [1, 6]: 20-90%; HALF-LIFE [2, 7]: 14 to 22 h; HALF-LIFE [2, 6]: 14 to 22 h; PLASMA PROTEIN BINDING (plasma protein; [7]): 88-93% ^; PLASMA PROTEIN BINDING (plasma protein; [6]): 88-93% ^
